Source: US9611289B2, “Farnesoid X receptor modulators” (Intercept Pharmaceuticals, Inc., priority 2013, dated 2017)
Converted amounts (≈) assume the structure as drawn. Counter-ions that a name gives are not always drawn. Like-named read-outs stand apart in the source and are kept apart here.

Experiments:
Surface tension at CMC = format: physicochemical; settings: […] NaCl water solution
[1] = Critical micellar concentration; format: physicochemical; settings: […] NaCl water solution
[2] = 1-octanol-water partition coefficient (LogPA-); settings: ionized species
PR = PR (Homo sapiens, UniProt P06401); assay: AlphaScreen nuclear receptor activation; format: biochemical
CYP1A2 = target: T1, CYP1A2 (Homo sapiens, UniProt P05177); assay: biochemical
T1 sequence (P05177 1-516): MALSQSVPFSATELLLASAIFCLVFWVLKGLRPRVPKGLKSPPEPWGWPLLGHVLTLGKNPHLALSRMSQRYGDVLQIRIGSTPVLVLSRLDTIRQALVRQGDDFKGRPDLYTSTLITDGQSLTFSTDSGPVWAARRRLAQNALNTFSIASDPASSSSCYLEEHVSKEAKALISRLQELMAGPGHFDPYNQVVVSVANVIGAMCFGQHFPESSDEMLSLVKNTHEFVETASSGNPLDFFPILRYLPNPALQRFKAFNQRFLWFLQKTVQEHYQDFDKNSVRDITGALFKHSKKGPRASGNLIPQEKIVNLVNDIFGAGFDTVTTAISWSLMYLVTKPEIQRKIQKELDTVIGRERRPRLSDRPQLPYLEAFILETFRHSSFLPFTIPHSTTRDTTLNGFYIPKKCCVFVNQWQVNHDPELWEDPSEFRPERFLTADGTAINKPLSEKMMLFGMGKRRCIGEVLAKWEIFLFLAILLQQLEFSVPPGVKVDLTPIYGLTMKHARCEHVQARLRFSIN

CYP2C9 = CYP2C9 (Homo sapiens, UniProt P11712); assay: biochemical
HepG2 cells [3] = assay: Cell viability by intracellular ATP in HepG2 cells; format: cell-based, human; settings: 4 h, different concentrations, FIG. 6
CYP2E1 = CYP2E1 (Homo sapiens, UniProt P05181); assay: biochemical
PXR [4] = target: T2, PXR (Homo sapiens, UniProt O75469); assay: AlphaScreen nuclear receptor activation; format: biochemical
T2 sequence (O75469 1-434): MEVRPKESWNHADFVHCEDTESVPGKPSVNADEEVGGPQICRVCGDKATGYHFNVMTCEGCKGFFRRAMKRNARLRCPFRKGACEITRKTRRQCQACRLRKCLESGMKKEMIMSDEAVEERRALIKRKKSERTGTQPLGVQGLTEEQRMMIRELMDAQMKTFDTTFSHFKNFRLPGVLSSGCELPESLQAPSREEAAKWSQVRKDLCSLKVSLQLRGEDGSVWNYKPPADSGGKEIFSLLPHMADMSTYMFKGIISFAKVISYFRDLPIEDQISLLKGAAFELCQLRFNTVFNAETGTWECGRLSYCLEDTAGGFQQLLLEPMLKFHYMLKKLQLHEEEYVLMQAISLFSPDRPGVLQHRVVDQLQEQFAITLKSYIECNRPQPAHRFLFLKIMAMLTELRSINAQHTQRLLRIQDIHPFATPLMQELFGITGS

CYP3A4 [5] = target: T3, CYP3A4 (Homo sapiens, UniProt P08684); assay: CYP450 inhibition, recombinant baculosomes, fluorescent signal; settings: read-out: CYP3A4 (Green Substrate) IC50
RARα = RARα (Homo sapiens, UniProt P10276); assay: AlphaScreen nuclear receptor activation; format: biochemical
HepG2 cells [6] = settings: for living cells: LDH measure
CYP2C19 = CYP2C19 (Homo sapiens, UniProt P33261); assay: biochemical
hERG potassium channel = hERG potassium channel (Homo sapiens, UniProt Q12809); assay: PREDICTOR hERG Fluorescence Polarization assay; settings: CHO-hERG membrane preparations
CYP2D6 = CYP2D6 (Homo sapiens, UniProt P10635); assay: biochemical
CYP3A4 [7] = target: T3, CYP3A4; assay: biochemical
FXR target genes = assay: Quantitative RT-PCR of FXR target genes in HepG2 cells; format: cell-based, human; settings: 1 μM, overnight
PXR [8] = target: T2, PXR; settings: taken from Rizzo et al. 2010; cited from earlier work
CAR = CAR (Homo sapiens, UniProt Q14994); settings: read-out: CAR Activation EC50; *inverse agonist; taken from Rizzo et al. 2010; cited from earlier work
HepG2 cells [9] = assay: cells; settings: Homo sapiens, HepG2, read-out: Membrane integrity EC50 (μM) (LDH measure)

CC[C@H]1[C@@H](O)C2C3CCC(C(C)CC(C)C(=O)O)[C@@]3(C)[C@@H](O)CC2[C@@]2(C)CC[C@@H](O)C[C@@H]12 (stereo in doubt) [Compound C, 6α-ethyl-23(S)-methyl-3α,7α,12α trihydroxy-5β-cholan-24-oic acid]
STCMC(c) (Dyne/cm) Surface Tension at CMC (Surface tension at CMC): 50.1 Dyne/cm | CMC(b) (mM) Critical Micellar Concentration [1]: 2 mM | LogPA−(d) 1-octanol-water partition coefficient [2]: 1.4

CC[C@H]1[C@@H](O)C2C3CC[C@H]([C@H](C)C[C@H](C)C(=O)O)[C@@]3(C)CCC2[C@@]2(C)CC[C@@H](O)C[C@@H]12 (stereo partly drawn) [Compound D, 6α-ethyl-23(R)-methyl chenodeoxycholic acid]
solubility (Water solubility): 15 µM (≈ 6.52 µg/mL) | LogPA−(d) 1-octanol-water partition coefficient [2]: 2.9

C[C@H](CCC(=O)O)[C@H]1CC[C@H]2[C@@H]3[C@@H](O)C[C@@H]4C[C@H](O)CC[C@]4(C)[C@H]3CC[C@]12C [UDCA, ursodeoxycholic acid]
STCMC(c) (Dyne/cm) Surface Tension at CMC (Surface tension at CMC): 50.5 Dyne/cm | solubility (Water solubility): 7 to 7.5 µM (≈ 2.75 to 2.94 µg/mL) | CMC(b) (mM) Critical Micellar Concentration [1]: 6 to 10 mM | LogPA−(d) 1-octanol-water partition coefficient [2]: 2.2

C[C@]12C[C@H](O)[C@H]3[C@@H](CCC4=CC(=O)CC[C@@]43C)[C@@H]1CC[C@@H]2C(=O)CO [Corticosterone]
EC50 (PR): 0.05 µM

CC[C@H]1[C@@H](O)[C@@H]2[C@H]([C@@H](O)C[C@]3(C)[C@@H]([C@H](C)CCC(=O)O)CC[C@@H]23)[C@@]2(C)CC[C@@H](O)C[C@@H]12 [Compound 100, 3α,7α,11β-trihydroxy-6α-ethyl-5β-cholan-24-oic acid]
IC50 (CYP1A2): > 10 µM | solubility (Water solubility): 143 to 150 µM (≈ 62.4 to 65.5 µg/mL) | LogPA−(d) 1-octanol-water partition coefficient [2]: 0.8 | IC50 (CYP2C9): > 10 µM | viable cells (ATP measurement) (HepG2 cells [3]): 100% | IC50 (CYP2E1): > 10 µM | PXR Activation EC50 (μM) (PXR [4]): No activity | IC50 (CYP3A4 [5]): > 10 µM | RARα Activation EC50 (μM) (RARα): No activity | living cells (HepG2 cells [6]; HepG2 cells): (100% living cells) | cytotoxic effect on HepG2 cells (HepG2 cells [6]; LDH release): does not induce any cytotoxic effect | IC50 (CYP2C19): > 10 µM | block or inhibition of the hERG potassium channel (hERG potassium channel): does not block or inhibit | IC50 (CYP2D6): > 10 µM | IC50 (CYP3A4 [7]): > 10 µM

C[C@H](CCC(=O)O)[C@H]1CC[C@H]2[C@@H]3[C@H](O)C[C@@H]4C[C@H](O)CC[C@]4(C)[C@H]3CC[C@]12C [CDCA, chenodeoxycholic acid]
STCMC(c) (Dyne/cm) Surface Tension at CMC (Surface tension at CMC): 45.5 Dyne/cm | CMC(b) (mM) Critical Micellar Concentration [1]: 3.2 mM | LogPA−(d) 1-octanol-water partition coefficient [2]: 2.2

CC[C@H]1[C@@H](O)[C@@H]2[C@H](CC[C@]3(C)[C@@H]([C@H](C)CCOS(=O)(=O)O)CC[C@@H]23)[C@@]2(C)CC[C@@H](O)C[C@@H]12 [Compound B, 6α-ethyl-3α,7α,23-trihydroxy-24-nor-5β-cholan-23-sulfate sodium salt]
IC50 (CYP1A2): > 10 µM | LogPA−(d) 1-octanol-water partition coefficient [2]: 2.0 | IC50 (CYP2C9): > 10 µM | IC50 (CYP2E1): > 10 µM | CYP7α1 gene expression (FXR target genes): down | IC50 (CYP3A4 [5]): > 10 µM | PXR Activation EC50 (μM) (PXR [8]): No activity | IC50 (CYP2C19): > 10 µM | block or inhibition of the hERG potassium channel (hERG potassium channel): does not block or inhibit | IC50 (CYP2D6): > 10 µM | EC50 (CAR): 44 µM | IC50 (CYP3A4 [7]): > 10 µM

C[C@H](CCC(=O)NCCS(=O)(=O)O)[C@H]1CC[C@H]2[C@@H]3[C@H](O)C[C@@H]4C[C@H](O)CC[C@]4(C)[C@H]3CC[C@]12C [TCDCA, taurochenodeoxycholic acid]
CMC(b) (mM) Critical Micellar Concentration [1]: 3.0 mM | LogPA−(d) 1-octanol-water partition coefficient [2]: 0.9

C[C@H](CCC(=O)NCCS(=O)(=O)O)[C@H]1CC[C@H]2[C@@H]3[C@@H](O)C[C@@H]4C[C@H](O)CC[C@]4(C)[C@H]3CC[C@]12C [TUDCA, tauroursodeoxycholic acid]
CMC(b) (mM) Critical Micellar Concentration [1]: 2.2 mM | LogPA−(d) 1-octanol-water partition coefficient [2]: 1.1

C[C@H](CCC(=O)O)[C@H]1CC[C@H]2[C@@H]3CC[C@@H]4C[C@H](O)CC[C@]4(C)[C@H]3CC[C@]12C [LCA, lithocholic acid]
EC50 (HepG2 cells [9]): 75 ± 5 µM

CC[C@H]1[C@@H](O)C2C3CC[C@H]([C@H](C)CCC(=O)O)[C@@]3(C)C[C@@H](O)C2[C@@]2(C)CC[C@@H](O)C[C@@H]12 (stereo partly drawn) [Compound 101]
Membrane integrity EC50 (μM) (LDH measure) (HepG2 cells [6]; HepG2 cells): No toxicity | living cells (HepG2 cells [6]; HepG2 cells): (100% living cells)

CC[C@H]1[C@@H](O)C2C3C[C@H](O)[C@H]([C@H](C)CCC(=O)O)[C@@]3(C)CCC2[C@@]2(C)CC[C@@H](O)C[C@@H]12 (stereo partly drawn) [Compound E]
STCMC(c) (Dyne/cm) Surface Tension at CMC (Surface tension at CMC): 52.4 Dyne/cm | solubility (Water solubility): 120 µM (≈ 52.4 µg/mL) | CMC(b) (mM) Critical Micellar Concentration [1]: 5.9 mM | LogPA−(d) 1-octanol-water partition coefficient [2]: 1.6
